Data on 38 compounds can be found in patent publication US20070208026A1, “N-Containing Heteroaromatic Compounds As Modulators Of Ppars And Methods Of Treating Metabolic Disorders” (priority 2003, published 2007).

The structures appear in SMILES notation.

Common to all, as to experiment: cell-based human PPAR-GAL4 chimera luciferase reporter assay in CV-1 cells
In general terms: In a reporter assay the amount or activity of a reporter protein is the signal.

One assay addresses T1, hPPAR α (Homo sapiens, UniProt Q07869).
T1 construct: expressed in transfected cells; host or cells: CV-1 cells
T1 sequence (Q07869 239-466 limits assumed): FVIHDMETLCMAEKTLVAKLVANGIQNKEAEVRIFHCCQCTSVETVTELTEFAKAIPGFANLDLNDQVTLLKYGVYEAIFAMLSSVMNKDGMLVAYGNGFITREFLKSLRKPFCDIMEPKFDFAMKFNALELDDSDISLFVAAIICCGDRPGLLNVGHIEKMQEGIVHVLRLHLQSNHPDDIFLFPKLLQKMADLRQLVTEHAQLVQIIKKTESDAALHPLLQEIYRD
The note with it: PPAR LBD-GAL4 chimera, 24 hours treatment; for EC50: read-out: hPPAP α (EC50). As to the method:
(§1) The compounds were evaluated in a cell-based assay to determine their human PPAR activity (See Tables 2 and 3). The plasmids for human PPAR-GAL4 chimeras were prepared by fusing amplified cDNAs encoding the LBDs of PPARs to the C-terminal end of the yeast GAL4 DNA binding domain. CV-1 cells were grown and transiently tranfected with PerFectin (GTS, San Diego, Calif.) according to the manufacturer's protocol along with a luciferase reporter. Eight hours after transfection, 50 μl of cells were replated into 384 well plates ([…]). Sixteen hours after replating, cells were treated with either compounds or 1% DMSO for 24 hours. Luciferase activity was then assayed with Britelite (Perkin Elmer) following the manufacturer's protocol and measured with either the Perkin Elmer Viewlux or Molecular Devices Acquest.

Another assay concerns the target T2, hPPAR γ (Homo sapiens, UniProt P37231).
T2 construct: expressed in transfected cells; host or cells: CV-1 cells
T2 sequence (P37231 238-503 limits assumed): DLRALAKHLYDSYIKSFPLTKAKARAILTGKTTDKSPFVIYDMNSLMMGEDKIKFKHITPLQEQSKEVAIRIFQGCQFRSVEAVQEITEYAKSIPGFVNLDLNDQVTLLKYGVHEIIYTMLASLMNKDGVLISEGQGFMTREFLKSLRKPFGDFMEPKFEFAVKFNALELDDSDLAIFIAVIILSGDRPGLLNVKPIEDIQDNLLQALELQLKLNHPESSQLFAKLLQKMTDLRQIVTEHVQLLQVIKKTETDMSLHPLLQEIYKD
The note with it: PPAR LBD-GAL4 chimera, 24 hours treatment. As to the method: as §1

The target of a further assay is T3, hPPAR δ (Homo sapiens, UniProt Q03181).
T3 construct: expressed in transfected cells; host or cells: CV-1 cells
T3 sequence (Q03181 211-439 limits assumed): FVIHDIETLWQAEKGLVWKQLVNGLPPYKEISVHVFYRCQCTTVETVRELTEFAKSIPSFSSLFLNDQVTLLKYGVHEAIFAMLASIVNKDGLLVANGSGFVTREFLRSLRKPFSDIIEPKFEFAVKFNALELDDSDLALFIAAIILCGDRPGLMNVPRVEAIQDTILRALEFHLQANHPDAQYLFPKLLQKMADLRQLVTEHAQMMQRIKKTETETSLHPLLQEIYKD
The following applies: PPAR LBD-GAL4 chimera, 24 hours treatment. The protocol: as §1

Consider `CCc1cnc(N(CCCOc2cccc3ccc(C(=O)O)nc23)Cc2ccc(C(F)(F)F)cc2C(F)(F)F)nc1`, for which the EC50 (in general, the concentration giving half of the maximal effect) at hPPAR α is greater than 100 µM; on hPPAR γ it was 1 to 100 µM; at hPPAR δ it was greater than 100 µM.
With `CCc1cnc(N(CCCOc2ccc3[nH]cc(CC(=O)O)c3c2)Cc2ccc(C(F)(F)F)cc2C(F)(F)F)nc1`, the EC50 at hPPAR α was greater than 100 µM; on hPPAR γ, less than 1 µM; on hPPAR δ, 1 to 100 µM.
Consider `CCc1cnc(N(CCCOc2ccc3c(c2)c(CC(=O)O)cn3C)Cc2ccc(C(F)(F)F)cc2C(F)(F)F)nc1`, for which the EC50 at hPPAR α is 1 to 100 µM; at hPPAR γ, less than 1 µM. For the same compound, at hPPAR δ, the “hPPAR δ (EC50)” value was “B/C”.
As for `CCCCN(CCCOc1ccc2[nH]cc(CC(=O)O)c2c1)c1ncc(CC)cn1`, the EC50 at hPPAR α is greater than 100 µM; at hPPAR γ it was 1 to 100 µM; at hPPAR δ it was greater than 100 µM.
Regarding `CCCCN(CCCOc1ccc2[nH]cc(CC(=O)O)c2c1)c1ccccn1`, the concentration for a half-maximal effect (EC50) is greater than 100 µM on hPPAR α, 1 to 100 µM at hPPAR γ and greater than 100 µM at hPPAR δ.
Take `CCCCN(CCCOc1ccc2[nH]cc(CC(=O)O)c2c1)c1nc2ccccc2s1`: the 50% effective concentration (EC50) at hPPAR α was greater than 100 µM; on hPPAR γ, 1 to 100 µM; at hPPAR δ it was 1 to 100 µM.
Turning to `CCCCN(CCCOc1ccc2[nH]cc(CC(=O)O)c2c1)c1nc2ccccc2o1`, the EC50 at hPPAR α was greater than 100 µM; on hPPAR γ it was 1 to 100 µM; at hPPAR δ, 1 to 100 µM.
For `O=C(O)Cc1c[nH]c2ccc(OCCCN(Cc3ccc(C(F)(F)F)cc3C(F)(F)F)c3nc4ccccc4o3)cc12`, the figures for the EC50 at hPPAR α, at hPPAR γ and at hPPAR δ were greater than 100 µM, less than 1 µM and less than 1 µM, respectively.
In the case of `O=C(O)Cc1c[nH]c2ccc(OCCCN(Cc3ccc(C(F)(F)F)cc3C(F)(F)F)c3ccccn3)cc12`, the EC50 was greater than 100 µM on hPPAR α, less than 1 µM on hPPAR γ and 1 to 100 µM at hPPAR δ.
With `O=C(O)Cc1c[nH]c2ccc(OCCCN(Cc3ccc(C(F)(F)F)cc3C(F)(F)F)c3nc4ccccc4s3)cc12`, the figures for the EC50 on hPPAR α, at hPPAR γ and at hPPAR δ were greater than 100 µM, less than 1 µM and greater than 100 µM, respectively.
With `CCc1cnc(N(CCCOc2nc3ccccc3nc2C(=O)O)Cc2ccc(C(F)(F)F)cc2C(F)(F)F)nc1`, the EC50 was greater than 100 µM on hPPAR α, less than 1 µM at hPPAR γ and greater than 100 µM on hPPAR δ.
As to `CCCCN(CCCOc1nc2ccccc2nc1C(=O)O)c1ncc(CC)cn1`, the results for the concentration giving a half-maximal response (EC50) at hPPAR α, at hPPAR γ and on hPPAR δ were greater than 100 µM, 1 to 100 µM and 1 to 100 µM, respectively.
Regarding `CCCCN(CCCOc1nc2ccccc2nc1C(=O)O)c1ccccn1`, the EC50 on hPPAR α was greater than 100 µM; on hPPAR γ, 1 to 100 µM; at hPPAR δ it was greater than 100 µM.
On to `CCCCN(CCCOc1nc2ccccc2nc1C(=O)O)c1nc2ccccc2s1`, for which the EC50 on hPPAR α is greater than 100 µM; on hPPAR γ, 1 to 100 µM; at hPPAR δ, greater than 100 µM.
For the compound `CCCCN(CCCOc1nc2ccccc2nc1C(=O)O)c1nc2ccccc2o1`, the half-maximal effective concentration (EC50) on hPPAR α was greater than 100 µM; on hPPAR γ it was 1 to 100 µM; at hPPAR δ, greater than 100 µM.
On to `O=C(O)c1nc2ccccc2nc1OCCCN(Cc1ccc(C(F)(F)F)cc1)c1nc2ccccc2s1`, for which the EC50 on hPPAR α, at hPPAR γ and at hPPAR δ was greater than 100 µM each time.
`O=C(O)c1nc2ccccc2nc1OCCCN(Cc1ccc(C(F)(F)F)cc1C(F)(F)F)c1nc2ccccc2o1`: the EC50 is greater than 100 µM at hPPAR α, less than 1 µM on hPPAR γ and greater than 100 µM on hPPAR δ.
For `O=C(O)c1nc2ccccc2nc1OCCCN(Cc1ccc(C(F)(F)F)cc1C(F)(F)F)c1ccccn1`, the values for the EC50 at hPPAR α, at hPPAR γ and at hPPAR δ were greater than 100 µM, less than 1 µM and greater than 100 µM, respectively.
`O=C(O)c1nc2ccccc2nc1OCCCN(Cc1ccc(C(F)(F)F)cc1C(F)(F)F)c1nc2ccccc2s1`: the EC50 on hPPAR α is greater than 100 µM; at hPPAR γ, less than 1 µM; on hPPAR δ, greater than 100 µM.
Regarding `CCc1cnc(N(CCCOc2cncc(C(=O)O)c2)Cc2ccc(C(F)(F)F)cc2C(F)(F)F)nc1`, the “hPPAP α (EC50)” value at hPPAR α is “B/C”. In addition, the EC50 at hPPAR γ was less than 1 µM; at hPPAR δ it was 1 to 100 µM.
In the case of `CCc1cnc(N(CCCOc2ncc(C(=O)O)cc2Cl)Cc2ccc(C(F)(F)F)cc2C(F)(F)F)nc1`, the EC50 at hPPAR α was greater than 100 µM; at hPPAR γ, less than 1 µM; at hPPAR δ, greater than 100 µM.
Consider `CCCCN(CCCOc1cncc(C(=O)O)c1)c1ncc(CC)cn1`, for which the EC50 on hPPAR α was greater than 100 µM; on hPPAR γ it was less than 1 µM; on hPPAR δ it was greater than 100 µM.
On to `CCCCN(CCCOc1cncc(C(=O)O)c1)c1ccccn1`, for which the EC50 at hPPAR α was greater than 100 µM; on hPPAR γ, 1 to 100 µM; on hPPAR δ, greater than 100 µM.
In the case of `CCCCN(CCCOc1cncc(C(=O)O)c1)c1nc2ccccc2s1`, the EC50 on hPPAR α is greater than 100 µM; on hPPAR γ it was less than 1 µM; at hPPAR δ, greater than 100 µM.
Regarding `CCCCN(CCCOc1cncc(C(=O)O)c1)c1nc2ccccc2o1`, the EC50 on hPPAR α is greater than 100 µM; on hPPAR γ, 1 to 100 µM; at hPPAR δ, greater than 100 µM.
For the compound `O=C(O)c1cncc(OCCCN(Cc2ccc(C(F)(F)F)cc2)c2nc3ccccc3s2)c1`, the EC50 at hPPAR α was 1 to 100 µM; at hPPAR γ it was less than 1 µM; at hPPAR δ, greater than 100 µM.
The like results for `O=C(O)c1cncc(OCCCN(Cc2ccc(C(F)(F)F)cc2C(F)(F)F)c2nc3ccccc3o2)c1` were, in that order, greater than 100 µM, 1 to 100 µM and greater than 100 µM.
For `O=C(O)c1cncc(OCCCN(Cc2ccc(C(F)(F)F)cc2C(F)(F)F)c2ccccn2)c1` the same measures were 1 to 100 µM, less than 1 µM and 1 to 100 µM.
The like results for `O=C(O)c1cncc(OCCCN(Cc2ccc(C(F)(F)F)cc2C(F)(F)F)c2nc3ccccc3s2)c1` were, in that order, greater than 100 µM, 1 to 100 µM and greater than 100 µM.
With `CCc1cnc(N(CCCOc2cccc(C(=O)O)n2)Cc2ccc(C(F)(F)F)cc2C(F)(F)F)nc1`, the “hPPAP α (EC50)” value on hPPAR α is “A/B”. Moreover, the EC50 on hPPAR γ is less than 1 µM; at hPPAR δ it was greater than 100 µM.
On to `CCCCN(CCCOc1cccc(C(=O)O)n1)c1ncc(CC)cn1`, for which the EC50 is 1 to 100 µM on hPPAR α, less than 1 µM at hPPAR γ and 1 to 100 µM on hPPAR δ.
Turning to `CCCCN(CCCOc1cccc(C(=O)O)n1)c1ccccn1`, the EC50 was greater than 100 µM on hPPAR α, 1 to 100 µM on hPPAR γ and greater than 100 µM on hPPAR δ.
With `CCCCN(CCCOc1cccc(C(=O)O)n1)c1nc2ccccc2s1`, the figures for the EC50 at hPPAR α, on hPPAR γ and at hPPAR δ were greater than 100 µM, 1 to 100 µM and greater than 100 µM, respectively.
On to `O=C(O)c1cccc(OCCCN(Cc2ccc(C(F)(F)F)cc2)c2nc3ccccc3s2)n1`, for which the EC50 at hPPAR α is greater than 100 µM; at hPPAR γ, less than 1 µM; on hPPAR δ it was greater than 100 µM.
For `O=C(O)c1cccc(OCCCN(Cc2ccc(C(F)(F)F)cc2C(F)(F)F)c2nc3ccccc3o2)n1`, the EC50 at hPPAR α is less than 1 µM; on hPPAR γ, greater than 100 µM; at hPPAR δ it was greater than 100 µM.
For `CCCCN(CCCOc1cccc(C(=O)O)n1)c1nc2ccccc2o1`, the 50% effective concentration (EC50) is 1 to 100 µM at hPPAR α, less than 1 µM at hPPAR γ and greater than 100 µM on hPPAR δ.
For `O=C(O)c1cccc(OCCCN(Cc2ccc(C(F)(F)F)cc2C(F)(F)F)c2ccccn2)n1` the same measures were 1 to 100 µM, less than 1 µM and greater than 100 µM.
Take `O=C(O)c1cccc(OCCCN(Cc2ccc(C(F)(F)F)cc2C(F)(F)F)c2nc3ccccc3s2)n1`: the results for the EC50 at hPPAR α, on hPPAR γ and on hPPAR δ were less than 1 µM, less than 1 µM and greater than 100 µM, respectively.
